From ChEMBL document CHEMBL1201862, “PubChem BioAssay data set” (2004) come the findings set out here.

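96-well plates; 48 h exposure; 5 concentrations. Endpoints by linear interpolation between flanking doses. Not reached: highest tested concentration assigned. GI50 marks 50% less growth.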 Activity calls are given as the source filed them. No stated cut-off is given here; in the data, active = GI50 up to about 1.1 µM and inactive = higher.

Holding throughout (assay): DTP human tumour cell line panel, 48 h
Assay [1] relates to 786-0.
Assay [2] relates to A549.
The test system of assay [3] is ACHN.
Assay [4] has as its system COLO 205.
Assay [5] relates to EKVX.
The test system of assay [6] is HOP-92.
For assay [7], the system named is MDA-MB-435.
For assay [8], the system named is NCI-H226.
The subject of assay [9] is NCI-H23.
Assay [10] deals with NCI-H522.
Assay [11] relates to NCI/ADR-RES.
The test system of assay [12] is OVCAR-3.
Assay [13] concerns OVCAR-4.
The test system of assay [14] is PC-3.
For assay [15], the system named is RPMI-8226.
Assay [16] has as its system SK-MEL-5.
The test system of assay [17] is SW-620.
In assay [18] the test system is TK-10.
In assay [19] the test system is UO-31.
The subject of assay [20] is UACC-62.

As usually defined, the GI50 is the concentration giving 50% growth inhibition. For `NCCC(=O)NC(Cc1c[nH]cn1)C(=O)O` (configuration not stated), the GI50 in [1], in assay [2], in assay [3], in assay [4], in assay [5] and in assay [6] was > 100 µM (inactive) throughout. In addition, the GI50 in [7], in [8], in assay [9], in [10], in assay [11] and in [12] was > 100 µM (inactive) each time. The GI50 in assay [13], in assay [14], in assay [15], in assay [16], in [17] and in assay [18] was > 100 µM (inactive) throughout. Besides, the GI50 in [19] is > 100 µM (inactive).

Regarding `CC1CC[C@@]2(OC1)OC1C[C@H]3[C@@H]4CC=C5CC(OC6OC(CO)C(OC7OC(CO)C(O)C(OC8OCC(O)C(O)C8O)C7OC7OC(CO)C(OC8OC(C)C(OC9OC(C)C(O)C(O)C9O)C(O)C8O)C(O)C7O)C(O)C6O)CCC5(C)[C@H]4CCC3(C)C1[C@@H]2C` (some centres not stated), the GI50 in [1] was 2.37 µM (inactive); in assay [2], 7.48 µM (inactive); in [3], 2.5 µM (inactive); in assay [4] it was 8.22 µM (inactive); in assay [5], 8.28 µM (inactive); in assay [6] it was 7.46 µM (inactive). The GI50 in assay [7] was 9.06 µM (inactive); in assay [8], 9.08 µM (inactive); in assay [9], 8.97 µM (inactive); in [10] it was 8.87 µM (inactive); in assay [11], 9.48 µM (inactive); in [12], 10.8 µM (inactive). Moreover, the GI50 is 4.21 µM (inactive) in assay [13]; 5.32 µM (inactive) in assay [14]; 10.8 µM (inactive) in assay [15]; 8.69 µM (inactive) in [16]; 11.4 µM (inactive) in assay [17]; 8.59 µM (inactive) in assay [18]. The GI50 in assay [20] is 9.71 µM (inactive).

Turning to `COCCNC1CCC2(SCCS2)c2[nH]c3ccccc3c21` (configuration not stated), the GI50 is 31.8 µM (inactive) in assay [1]; > 100 µM (inactive) in assay [2]; 61.9 µM (inactive) in [3]; 22.2 µM (inactive) in assay [4]; > 100 µM (inactive) in assay [5]; 21.8 µM (inactive) in assay [6]. In addition, the GI50 was 22.4 µM (inactive) in assay [7]; 40.3 µM (inactive) in assay [8]; > 100 µM (inactive) in assay [9]; 30.8 µM (inactive) in assay [10]; 37.5 µM (inactive) in assay [11]; 27.2 µM (inactive) in [12]. The GI50 in [13] was 97.1 µM (inactive); in assay [14], 28.6 µM (inactive); in assay [15] it was 15 µM (inactive); in [16], 25.1 µM (inactive); in assay [17], 68.7 µM (inactive); in assay [18], 22.5 µM (inactive). In assay [19], the GI50 was > 10 µM (inactive).

As to `CC(=O)/C=C1\Nc2ccccc2N\C1=C/C(C)=O`, the GI50 is 18.5 µM (inactive) in assay [1]; 21.5 µM (inactive) in assay [2]; 22.6 µM (inactive) in [3]; 23.2 µM (inactive) in [4]; 27.5 µM (inactive) in assay [5]; 24.4 µM (inactive) in assay [6]. In addition, the GI50 is 26.4 µM (inactive) in assay [7]; 21.4 µM (inactive) in assay [8]; 31.2 µM (inactive) in assay [9]; 11.1 µM (inactive) in assay [10]; 29 µM (inactive) in assay [11]; 17.5 µM (inactive) in assay [12]. The GI50 in assay [13] is 19 µM (inactive); in [14], 37.9 µM (inactive); in assay [15], 19.5 µM (inactive); in [16], 16.8 µM (inactive); in assay [17] it was 35.7 µM (inactive); in assay [18], 19.4 µM (inactive). For the same compound, the GI50 in assay [20] was 20.1 µM (inactive); in assay [19], 36.6 µM (inactive).

With `S=c1sscc1N1CCSc2ssc(=S)c21`, the GI50 was 33.7 µM (inactive) in [1]; 48.6 µM (inactive) in assay [2]; 30.5 µM (inactive) in assay [3]; > 100 µM (inactive) in [4]; 16.6 µM (inactive) in assay [5]; 8.36 µM (inactive) in [6]. Also, the GI50 in [7] was > 100 µM (inactive); in assay [8], 67.8 µM (inactive); in assay [9], 19.9 µM (inactive); in assay [10], 19.8 µM (inactive); in assay [11], 28.4 µM (inactive); in [13] it was 7.45 µM (inactive). In addition, the GI50 in assay [14] is 48.1 µM (inactive); in assay [15], > 100 µM (inactive); in [16], > 100 µM (inactive); in assay [17], > 100 µM (inactive); in assay [18], 24.8 µM (inactive); in assay [20], 67.1 µM (inactive). In addition, the GI50 in assay [19] is 29.9 µM (inactive).

On to `Cc1ccc(S(=O)(=O)c2scc(-c3ccccc3)c2C)cc1`, for which the GI50 in assay [1] is > 100 µM (inactive); in assay [2], 57.8 µM (inactive); in assay [3], 67.6 µM (inactive); in [4] it was > 100 µM (inactive); in [5], 37.6 µM (inactive); in assay [6], 72.4 µM (inactive). The GI50 was 91 µM (inactive) in [7]; > 100 µM (inactive) in assay [8]; 38.1 µM (inactive) in [9]; > 100 µM (inactive) in assay [10]; 35.5 µM (inactive) in [11]; 77.3 µM (inactive) in assay [12]. Besides, the GI50 in assay [13] is > 100 µM (inactive); in assay [14], 89.3 µM (inactive); in assay [15], 44.2 µM (inactive); in assay [16], 40.2 µM (inactive); in assay [17], > 100 µM (inactive); in assay [18], > 100 µM (inactive). For the same compound, the GI50 in [20] and in assay [19] was > 100 µM (inactive) throughout.

Take `CCCCCCCCCCCCOc1ccc(/C=C/C2=[N+](CCCl)CCO2)cc1`: the GI50 in assay [1] was 19.2 µM (inactive); in assay [2], 65.2 µM (inactive); in assay [3], 50.2 µM (inactive); in assay [4], > 100 µM (inactive); in [5] it was 97.1 µM (inactive); in assay [6], 25.1 µM (inactive). For the same compound, the GI50 in [7] was 94.2 µM (inactive); in [8] it was > 100 µM (inactive); in [10] it was 17 µM (inactive); in assay [11], 46.1 µM (inactive); in assay [12] it was 19.4 µM (inactive); in assay [13], 41.7 µM (inactive). Moreover, the GI50 is 58.1 µM (inactive) in assay [14]; 20.1 µM (inactive) in assay [15]; 67 µM (inactive) in assay [16]; > 100 µM (inactive) in [17]; 47.6 µM (inactive) in [18]; 93.3 µM (inactive) in [20]. Also, in assay [19], the GI50 is 47.3 µM (inactive).

In the case of `Nc1c(-c2nc3ccccc3o2)sc(=S)n1-c1ccc(Cl)cc1`, the GI50 is 8.57 µM (inactive) in assay [1]; 13.2 µM (inactive) in assay [2]; 9.1 µM (inactive) in assay [3]; 17.1 µM (inactive) in [4]; 12.6 µM (inactive) in [5]; 21.7 µM (inactive) in [6]. Moreover, the GI50 in assay [7] was 17.3 µM (inactive); in [8], 13.9 µM (inactive); in assay [9], 13.9 µM (inactive); in assay [10], 14 µM (inactive); in assay [11] it was 19.3 µM (inactive); in assay [12], 15.9 µM (inactive). The GI50 is 11 µM (inactive) in [13]; 21.7 µM (inactive) in assay [14]; 82.6 µM (inactive) in assay [15]; 17.2 µM (inactive) in assay [16]; 27.9 µM (inactive) in [18]; 0.452 µM (active) in [20]. Also, the GI50 in assay [19] was 29.4 µM (inactive).

`Cc1ccc2nc(CN3CCCCC3)cc(=O)n2c1`: the GI50 in [1], in [2], in [3], in assay [4], in assay [5] and in assay [6] was > 100 µM (inactive) each time. For the same compound, the GI50 in assay [7], in assay [8], in assay [9], in [10], in assay [11] and in [12] was > 100 µM (inactive) throughout. Further, the GI50 in assay [13], in assay [14], in assay [15], in assay [17], in assay [18] and in assay [20] was > 100 µM (inactive) in each case. In addition, the GI50 in [19] was > 100 µM (inactive).

Take `O=C1CC(c2ccccc2Cl)C2(C(=O)NC(=O)NC2=O)C(c2ccccc2Cl)C1` (configuration not stated): the GI50 in assay [1] is > 100 µM (inactive); in assay [2], 85.3 µM (inactive); in [3], > 100 µM (inactive); in assay [5] it was 38.6 µM (inactive); in [6], > 100 µM (inactive); in assay [7], 52.6 µM (inactive). For the same compound, the GI50 was 65.8 µM (inactive) in [8]; > 100 µM (inactive) in [9]; > 100 µM (inactive) in [10]; > 100 µM (inactive) in [11]; 32.6 µM (inactive) in assay [12]; > 100 µM (inactive) in assay [13]. In addition, the GI50 was > 100 µM (inactive) in assay [14]; 68.2 µM (inactive) in assay [15]; > 100 µM (inactive) in assay [16]; > 100 µM (inactive) in assay [17]; > 100 µM (inactive) in assay [18]; 46.9 µM (inactive) in [20]. The GI50 in [19] is > 100 µM (inactive).
